Data set [1] is described as follows: aggregation of 1 by UV absorption change of the supernatant. Format: physicochemical. As to conditions: over time, Figure S3, varying [Van]0.
For data set [2], the system named is HeLa cells. The experiment in a line: MTT cell viability, HeLa. It is filed as cell-based.
Data set [3] deals with HeLa cells. Kind of data set: NBD-Van staining of aggregates on HeLa cells, confocal. It is filed as cell-based. As to conditions: NBD-Van (6 μM) alone.
Data set [4] can be described thus: isothermal titration calorimetry. It is filed as binding. Conditions: ITC of 2 with Van, 25 °C, Figure S6.

The values below come from publication PMC4295010 (Journal of the American Chemical Society, 2014).

Where a SMILES comes first, the peptide text is derived from it. [ ]: non-standard residue; d: D form.

Regarding `CN[C@H](CC(C)C)C(=O)N[C@H]1C(=O)N[C@@H](CC(N)=O)C(=O)N[C@H]2C(=O)N[C@H]3C(=O)N[C@H](C(=O)N[C@H](C(=O)O)c4cc(O)cc(O)c4-c4cc3ccc4O)[C@H](O)c3ccc(c(Cl)c3)Oc3cc2cc(c3O[C@@H]2O[C@H](CO)[C@@H](O)[C@H](O)[C@H]2O[C@H]2C[C@](C)(N)[C@H](O)[C@H](C)O2)Oc2ccc(cc2Cl)[C@H]1O` [Van, vancomycin, reference compound], in data set [1], the “amount of Van in the aggregates” value is given as “decreases with time”. Moreover, the cytotoxicity result in the data set on HeLa cells [2] (alone, concentration as high as 500 μM, MTT) was “innocuous”.

For the compound “7-nitrobenzofurazan-derivatized vancomycin [NBD-Van]”, the “fluorescent aggregates with HeLa cells” value in the data set with HeLa cells [3] is “few aggregates on the cells”.

Regarding `CC(=O)N[C@@H](CCCCN)C(=O)NCC(=O)NCC(=O)N[C@H](C)C(=O)N[C@H](C)C(=O)O` [compound 2] (Ac-KGG[dA][dA]-OH), in data set [4], binding was characterised by a dissociation constant (Kd) of 135 µM and the binding ratio n is reported as 1. Moreover, the inhibition of proliferation entry in the data set on HeLa cells [2] (with addition of Van at 500 μM) is “scarcely inhibits”. In the data set on HeLa cells [2] (without addition of Van, at 500 μM), the inhibition of proliferation result is listed as “scarcely inhibits”.
